Reference: US20080181961A1, “AMORPHOUS OXCARBAZEPINE AND THE PRODUCTION THEREOF” (ISP INVESTMENTS, INC., priority 2007, published 2008)

Test: Aqueous release, USP apparatus II (paddles), water with 6% Cremophor EL (sink conditions)
Assay type: physicochemical
Conditions: 37° C., 100 rpm to 60 minutes then 200 rpm for 15 minutes, 600 mg dose, FIG. 2
Method: Dissolution profiles can be determined using USP apparatus II (paddles) (VK 7010®, Varian Inc.), with a bath temperature of 37° C. and a paddle speed of 100 rpm for 60 minutes, followed by a paddle speed of 200 rpm for an additional 15 minutes.
The aqueous release of the spray dried powder was measured using USP apparatus II (paddles) at 37° C. in water with 6% Cremophor EL. The paddle speed was 100 rpm for the first 60 minutes, and then the paddle speed was increased to 200 rpm for an additional 15 minutes. A dose equivalent to 600 mg oxcarbazepine was filled into hard gelatin capsules (Qualicaps, Shionogi). This media creates sink conditions for the tested dose. • 5.
The release profile of this spray dried product was measured using the same dissolution method of Example 1, that is, in media that creates sink conditions for the tested dose. • 5.

## NC(=O)N1c2ccccc2CC(=O)c2ccccc21 [crystalline oxcarbazepine, 10,11-dihydro-10-oxo-5H-dibenz[b,f]azepine-5-carboxamide]
  oxcarbazepine release after the first 15 minutes: remained essentially constant
